Read-outs that look alike come from different tables or passages of the source.
Test system: carrageenin-induced hyperalgesia on a rat's paw
Conditions: in vivo

Row | Compound | dose starting from which the pain threshold following a mechanical stimulus applied to the rats' paws is significantly reduced (iv) | dose starting from which the pain threshold following a mechanical stimulus applied to the rats' paws is significantly reduced (ip)
1 | N[C@@H](CSSC[C@H](N)C(=O)N1CCn2cc(-c3ccccc3)nc2[C@@H]1CC1CCCCC1)C(=O)N1CCn2cc(-c3ccccc3)nc2[C@@H]1CC1CCCCC1 [compound 1, (1R)-1-[({(2R)-2-amino-3-[(8S)-8-(cyclohexylmethyl)-2-phenyl-5,6-dihydroimidazo [1,2-α]pyrazin-7(8H)-yl]-3-oxopropyl}dithio)methyl]-2-[(8S)-8-(cyclohexylmethyl)-2-phenyl-5,6-dihydroimidazo [1,2-α]pyrazin-7(8H)-yl]-2-oxoethylamine] | ≥ 1 mg/kg | 
2 | CN1CC[C@]23c4c5ccc(O)c4O[C@H]2[C@@H](O)C=C[C@H]3[C@H]1C5 [morphine] |  | ≥ 1 mg/kg
